Measured values published in ChEMBL document CHEMBL1145498, “A systematic interaction map of validated kinase inhibitors with Ser/Thr kinases” (Proc Natl Acad Sci U S A, 2007).
Calls of active or inactive are those of the source. The calls are words filed in the database; no cut-off is given here.

Key:
[1] = biological target: Calcium/calmodulin-dependent protein kinase type 1D (Homo sapiens) (UniProt Q8IU85)
[2] = biological target: 5'-AMP-activated protein kinase catalytic subunit alpha-2 (Homo sapiens) (UniProt P54646)
[3] = biological target: Serine/threonine-protein kinase Chk2 (Homo sapiens, UniProt O96017)
[4] = biological target: Casein kinase I isoform gamma-2 (Homo sapiens) (UniProt P78368)
[5] = biological target: Serine/threonine-protein kinase pim-1 (Homo sapiens) (UniProt P11309)
[6] = biological target: Serine/threonine-protein kinase 38 (Homo sapiens) (UniProt Q15208)
[7] = biological target: Mitogen-activated protein kinase 3 (Homo sapiens, UniProt P27361)
[8] = biological target: T1, Serine/threonine-protein kinase PLK4 (Homo sapiens) (UniProt O00444)
T1 sequence (whole entry): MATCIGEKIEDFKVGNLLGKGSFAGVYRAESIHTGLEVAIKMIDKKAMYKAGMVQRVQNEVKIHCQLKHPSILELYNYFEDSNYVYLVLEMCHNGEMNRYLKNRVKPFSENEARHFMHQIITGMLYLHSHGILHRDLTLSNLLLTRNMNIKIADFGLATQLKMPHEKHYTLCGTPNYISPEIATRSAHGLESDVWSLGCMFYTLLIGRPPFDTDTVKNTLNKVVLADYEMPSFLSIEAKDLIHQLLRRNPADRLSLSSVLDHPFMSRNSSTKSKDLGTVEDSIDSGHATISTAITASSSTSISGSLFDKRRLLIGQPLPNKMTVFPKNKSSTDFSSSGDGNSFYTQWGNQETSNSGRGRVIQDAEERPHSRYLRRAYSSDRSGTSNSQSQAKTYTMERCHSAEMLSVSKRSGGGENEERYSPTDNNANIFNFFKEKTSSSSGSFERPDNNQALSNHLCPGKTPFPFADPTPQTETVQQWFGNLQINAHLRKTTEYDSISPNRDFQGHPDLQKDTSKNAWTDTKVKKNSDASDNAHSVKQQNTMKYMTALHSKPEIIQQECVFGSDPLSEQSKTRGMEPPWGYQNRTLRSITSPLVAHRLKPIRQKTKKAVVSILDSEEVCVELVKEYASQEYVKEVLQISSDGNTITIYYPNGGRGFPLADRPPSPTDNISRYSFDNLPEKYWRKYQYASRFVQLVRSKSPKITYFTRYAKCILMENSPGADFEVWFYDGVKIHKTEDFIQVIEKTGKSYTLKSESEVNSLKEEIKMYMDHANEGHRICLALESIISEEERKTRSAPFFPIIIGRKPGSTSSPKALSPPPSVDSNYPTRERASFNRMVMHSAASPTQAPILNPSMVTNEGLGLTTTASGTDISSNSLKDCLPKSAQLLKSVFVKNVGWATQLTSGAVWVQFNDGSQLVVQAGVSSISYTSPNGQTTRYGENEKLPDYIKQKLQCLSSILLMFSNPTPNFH

[9] = biological target: Dual specificity protein kinase CLK3 (Homo sapiens) (UniProt P49761)
[10] = Inhibition of Cdk4/cyclin D1
[11] = biological target: Cyclin-dependent kinase 2 (Homo sapiens, UniProt P24941)

Dual specificity protein kinase CLK3 (Homo sapiens), sequence (P49761 whole entry, looked up): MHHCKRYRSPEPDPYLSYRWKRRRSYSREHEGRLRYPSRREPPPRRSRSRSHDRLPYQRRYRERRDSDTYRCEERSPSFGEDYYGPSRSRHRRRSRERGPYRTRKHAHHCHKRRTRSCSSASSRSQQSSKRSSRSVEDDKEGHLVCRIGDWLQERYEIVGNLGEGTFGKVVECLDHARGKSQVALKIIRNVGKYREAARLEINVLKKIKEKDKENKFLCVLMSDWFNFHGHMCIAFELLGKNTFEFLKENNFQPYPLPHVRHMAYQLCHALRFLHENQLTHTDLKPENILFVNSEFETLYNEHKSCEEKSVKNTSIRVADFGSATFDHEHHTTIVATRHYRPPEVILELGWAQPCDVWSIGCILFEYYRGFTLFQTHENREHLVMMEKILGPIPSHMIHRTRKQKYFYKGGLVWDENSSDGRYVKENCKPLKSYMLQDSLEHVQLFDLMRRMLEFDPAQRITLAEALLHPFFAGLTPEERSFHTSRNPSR
Serine/threonine-protein kinase 38 (Homo sapiens), sequence (Q15208 2-465 limits assumed): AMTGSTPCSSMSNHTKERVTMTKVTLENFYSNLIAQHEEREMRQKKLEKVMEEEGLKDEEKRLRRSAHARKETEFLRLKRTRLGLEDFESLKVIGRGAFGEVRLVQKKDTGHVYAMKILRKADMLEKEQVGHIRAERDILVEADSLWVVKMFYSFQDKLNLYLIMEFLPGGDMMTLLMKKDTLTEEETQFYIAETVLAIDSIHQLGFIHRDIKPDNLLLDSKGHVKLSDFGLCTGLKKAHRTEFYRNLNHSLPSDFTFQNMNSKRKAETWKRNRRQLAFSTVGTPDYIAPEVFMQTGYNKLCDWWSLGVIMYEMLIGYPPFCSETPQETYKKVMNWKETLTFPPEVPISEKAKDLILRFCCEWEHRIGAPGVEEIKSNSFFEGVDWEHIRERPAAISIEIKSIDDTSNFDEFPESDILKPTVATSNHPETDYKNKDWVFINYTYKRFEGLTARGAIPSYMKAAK
Mitogen-activated protein kinase 3, sequence (P27361 whole entry): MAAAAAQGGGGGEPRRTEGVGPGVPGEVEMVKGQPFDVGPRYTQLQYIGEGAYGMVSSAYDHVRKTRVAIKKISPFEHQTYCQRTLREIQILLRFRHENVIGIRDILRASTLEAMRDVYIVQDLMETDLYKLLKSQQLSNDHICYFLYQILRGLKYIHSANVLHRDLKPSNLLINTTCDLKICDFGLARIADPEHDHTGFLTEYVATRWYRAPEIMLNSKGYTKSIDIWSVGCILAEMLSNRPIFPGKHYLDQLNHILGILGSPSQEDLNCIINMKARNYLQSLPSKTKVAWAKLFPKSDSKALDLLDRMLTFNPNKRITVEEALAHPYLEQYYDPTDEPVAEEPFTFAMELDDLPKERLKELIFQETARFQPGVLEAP
Calcium/calmodulin-dependent protein kinase type 1D (Homo sapiens), sequence (Q8IU85 whole entry, looked up): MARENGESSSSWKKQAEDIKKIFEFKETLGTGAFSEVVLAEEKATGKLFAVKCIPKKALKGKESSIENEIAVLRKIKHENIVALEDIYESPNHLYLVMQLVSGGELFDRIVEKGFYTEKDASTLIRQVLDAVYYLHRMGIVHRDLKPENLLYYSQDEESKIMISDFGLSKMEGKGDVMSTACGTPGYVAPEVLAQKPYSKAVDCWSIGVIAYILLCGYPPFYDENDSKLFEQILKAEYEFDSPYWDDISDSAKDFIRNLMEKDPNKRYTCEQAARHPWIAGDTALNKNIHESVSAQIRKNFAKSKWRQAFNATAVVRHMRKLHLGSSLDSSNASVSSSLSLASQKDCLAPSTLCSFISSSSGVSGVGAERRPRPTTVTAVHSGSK
Serine/threonine-protein kinase pim-1 (Homo sapiens), sequence (P11309 whole entry, looked up): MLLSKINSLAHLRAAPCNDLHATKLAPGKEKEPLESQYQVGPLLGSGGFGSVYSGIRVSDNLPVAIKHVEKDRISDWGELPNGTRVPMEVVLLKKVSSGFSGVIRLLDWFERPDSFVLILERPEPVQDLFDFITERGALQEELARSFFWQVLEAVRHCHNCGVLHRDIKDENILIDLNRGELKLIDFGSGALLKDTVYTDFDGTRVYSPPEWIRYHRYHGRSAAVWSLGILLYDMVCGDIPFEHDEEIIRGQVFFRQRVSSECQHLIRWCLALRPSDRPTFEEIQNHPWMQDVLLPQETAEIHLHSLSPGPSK
Casein kinase I isoform gamma-2 (Homo sapiens), sequence (P78368 whole entry, looked up, canonical isoform): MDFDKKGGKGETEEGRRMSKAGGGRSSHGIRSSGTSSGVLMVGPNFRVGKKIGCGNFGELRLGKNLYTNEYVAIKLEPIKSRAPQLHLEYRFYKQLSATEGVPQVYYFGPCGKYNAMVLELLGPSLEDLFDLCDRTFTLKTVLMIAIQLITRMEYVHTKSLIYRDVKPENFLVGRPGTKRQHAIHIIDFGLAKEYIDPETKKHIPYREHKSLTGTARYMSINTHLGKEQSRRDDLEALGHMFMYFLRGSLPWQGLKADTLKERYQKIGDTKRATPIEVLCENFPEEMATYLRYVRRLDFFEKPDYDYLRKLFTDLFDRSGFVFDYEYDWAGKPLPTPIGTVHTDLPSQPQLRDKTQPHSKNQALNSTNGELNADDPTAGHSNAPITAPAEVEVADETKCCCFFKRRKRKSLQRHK
Serine/threonine-protein kinase Chk2, sequence (O96017 whole entry, canonical isoform): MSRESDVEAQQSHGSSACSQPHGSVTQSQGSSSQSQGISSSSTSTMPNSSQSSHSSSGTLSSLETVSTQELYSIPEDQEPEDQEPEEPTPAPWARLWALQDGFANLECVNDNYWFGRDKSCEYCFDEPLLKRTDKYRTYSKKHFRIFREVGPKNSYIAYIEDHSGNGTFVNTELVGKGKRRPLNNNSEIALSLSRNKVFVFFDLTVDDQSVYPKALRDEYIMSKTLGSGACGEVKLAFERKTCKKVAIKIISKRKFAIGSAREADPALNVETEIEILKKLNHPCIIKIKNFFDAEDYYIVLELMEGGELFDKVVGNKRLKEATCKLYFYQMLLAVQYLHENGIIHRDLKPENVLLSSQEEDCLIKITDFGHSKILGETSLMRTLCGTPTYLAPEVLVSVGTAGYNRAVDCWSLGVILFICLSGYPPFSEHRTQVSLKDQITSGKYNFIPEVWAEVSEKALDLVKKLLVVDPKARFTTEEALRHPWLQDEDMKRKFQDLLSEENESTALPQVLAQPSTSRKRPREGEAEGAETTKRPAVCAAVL
5'-AMP-activated protein kinase catalytic subunit alpha-2 (Homo sapiens), sequence (P54646 whole entry, looked up): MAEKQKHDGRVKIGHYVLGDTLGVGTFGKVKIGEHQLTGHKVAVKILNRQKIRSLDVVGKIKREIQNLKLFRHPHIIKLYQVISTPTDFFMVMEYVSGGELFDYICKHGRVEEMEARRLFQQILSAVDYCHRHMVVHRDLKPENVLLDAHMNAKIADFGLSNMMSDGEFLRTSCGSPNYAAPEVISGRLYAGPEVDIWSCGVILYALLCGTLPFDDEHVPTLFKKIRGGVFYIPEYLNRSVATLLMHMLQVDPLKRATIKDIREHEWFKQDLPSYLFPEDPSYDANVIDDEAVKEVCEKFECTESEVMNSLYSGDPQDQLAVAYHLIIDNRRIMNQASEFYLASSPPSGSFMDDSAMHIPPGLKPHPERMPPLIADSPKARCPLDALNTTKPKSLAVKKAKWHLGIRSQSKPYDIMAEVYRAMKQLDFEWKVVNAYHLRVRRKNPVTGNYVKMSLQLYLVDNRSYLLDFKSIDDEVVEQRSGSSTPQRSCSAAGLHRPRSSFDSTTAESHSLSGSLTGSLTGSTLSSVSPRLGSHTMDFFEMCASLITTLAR

SMILES | ΔTm [1] | ΔTm [2] | ΔTm [3] | ΔTm [4] | ΔTm [5] | ΔTm [6] | ΔTm [7] | ΔTm [8] | ΔTm [9] | IC50 [10] | ΔTm [11] | Activity [10] | Ki [10]
CC(=O)O/N=C1/C(=C2/C(=O)Nc3cc(Br)ccc32)Nc2ccccc21 [6-BROMOINDIRUBIN-3'-ACETOXIME] | -1.4 °C | 2 °C | 0.1 °C | 0.5 °C | -0.2 °C | 0.9 °C | 0 °C | 6.7 °C | -0.4 °C | ≥ 10000 nM | 3.2 °C | – | –
NS(=O)(=O)c1ccc(Nc2nc(OCC3CCCCC3)c3nc[nH]c3n2)cc1 | 0.8 °C | 1.9 °C | 2.5 °C | 2.5 °C | 0.4 °C | 1.5 °C | 0.1 °C | 1.1 °C | 1.3 °C | 1600 nM | – | – | –
CCOC(=O)c1cnc2oc3ccc(O)cc3c2c1-c1ccccc1 | 0.4 °C | 0 °C | 0.8 °C | 1.1 °C | 5.1 °C | 0.2 °C | -0.1 °C | 2.8 °C | 1 °C | – | 1 °C | Active | –
C=CNC#N | 0.7 °C | -0.7 °C | 0.1 °C | 0.1 °C | 0.1 °C | 0.7 °C | -0.6 °C | 0.1 °C | 0.2 °C | – | -0.2 °C | – | –
CCN(CC)CCNC(=O)c1c(C)[nH]c(/C=C2\C(=O)Nc3ccc(Cl)cc32)c1C [SU-11652] | 2.6 °C | 7 °C | 10.3 °C | 4 °C | 2.9 °C | 2.7 °C | 0 °C | 7.8 °C | 2.2 °C | – | 0.9 °C | – | –
CN(c1cccnc1)c1cc2c(Nc3ccc(F)c(Cl)c3)c(C#N)cnc2cn1 | 1.9 °C | 4.8 °C | 5 °C | 0.4 °C | 0.1 °C | 0.3 °C | -1.9 °C | 8.2 °C | 1.2 °C | – | -0.5 °C | – | –
O=C1Nc2ccccc2/C1=C\c1ccc[nH]1 | 1.3 °C | 3.2 °C | 4.1 °C | 1.6 °C | 0.1 °C | 2.7 °C | 0.3 °C | 6 °C | 0.5 °C | – | 3.4 °C | – | –
Nc1cccc(-c2cc3c(Oc4cccc(O)c4)ncnc3[nH]2)c1 | 0.3 °C | 0.6 °C | 1.7 °C | 1.2 °C | 0.7 °C | 2.2 °C | 0 °C | 0.8 °C | 0.9 °C | – | 0.9 °C | – | –
Cc1[nH]c(/C=C2\C(=O)Nc3ccc(S(=O)(=O)N(C)c4cccc(Cl)c4)cc32)c(C)c1C(=O)N1CCN(C)CC1 | 0.4 °C | 4 °C | 2.9 °C | 0.3 °C | -0.2 °C | 4.2 °C | 0.1 °C | 0.8 °C | 3.7 °C | – | -0.4 °C | – | –
COc1ccc2c(c1)/C(=C/c1cnc[nH]1)C(=O)N2 [SU-9516] | 0.5 °C | 4.1 °C | 1.6 °C | 0.7 °C | 1.3 °C | 3.4 °C | 2.6 °C | 4.9 °C | 1.3 °C | 200 nM | – | – | –
CCOC(=O)c1c(C)[nH]c(/C=C2\C(=O)Nc3ccccc32)c1C | 0 °C | 0.5 °C | 0.7 °C | 0.4 °C | -0.1 °C | -0.1 °C | -0.4 °C | 2.3 °C | -0.1 °C | – | -3.4 °C | – | –
O=c1cc(N2CCOCC2)oc2c1ccc1ccccc12 | 0 °C | 0.4 °C | -0.3 °C | 0.6 °C | 1.7 °C | 0.1 °C | 0.2 °C | 0.2 °C | 0.1 °C | – | 0.5 °C | – | –
COc1cc(/C=C/C(=O)CC(=O)/C=C/c2ccc(O)c(OC)c2)ccc1O [CURCUMIN] | 2 °C | -0.1 °C | 5.4 °C | 2.3 °C | 2.5 °C | 2.5 °C | 0.8 °C | 3.3 °C | 3.6 °C | – | 1.9 °C | – | –
O=C(Nc1cccc(Nc2nccc(Nc3cccc(C(F)(F)F)c3)n2)c1)C1CC1 [ANILINOPYRIMIDINE1] | 2.8 °C | 1.5 °C | 3.8 °C | 6.5 °C | 7.3 °C | 0.4 °C | 0.9 °C | 2.2 °C | 0.6 °C | – | 0 °C | – | –
N#CC(C#N)=Cc1ccc(O)c(O)c1 [TYRPHOSTIN 23] | 0.2 °C | -0.1 °C | 0.7 °C | 0.4 °C | 1.5 °C | 0.2 °C | 0.3 °C | 0.7 °C | 0.4 °C | – | 1.1 °C | – | –
CC(C)n1cnc2/c(=N/c3cccc(Cl)c3)nc(NCCO)[nH]c21 | 0.7 °C | 0.3 °C | 1.7 °C | 4.5 °C | -0.3 °C | 2.7 °C | 0.2 °C | 1.3 °C | 4 °C | – | 1.6 °C | – | –
CC(C)(C)n1nc(-c2cccc3ccccc23)c2c(N)ncnc21 | -0.3 °C | 0 °C | 0.3 °C | 0.5 °C | -0.2 °C | 0.4 °C | 0.8 °C | 1.1 °C | 0.2 °C | – | 0.1 °C | – | –
COc1cc(OC)c(/C=C2\C(=O)Nc3ccccc32)c(OC)c1 | -0.2 °C | -0.1 °C | -0.7 °C | 0.7 °C | -1 °C | 0.2 °C | 0 °C | 0.3 °C | 0 °C | – | 0.5 °C | – | –
CC(C)(C)n1nc(-c2ccc(Cl)cc2)c2c(N)ncnc21 | -0.2 °C | 0.7 °C | 0.4 °C | 0.8 °C | 0.1 °C | 0.7 °C | 0 °C | 4.1 °C | 0.7 °C | – | 0.7 °C | – | –
C/C(O)=C(\C#N)C(=O)Nc1cc(Br)ccc1Br | 0.3 °C | 0.6 °C | 0.5 °C | 0.4 °C | 1.4 °C | -0.1 °C | 0.3 °C | 1.1 °C | 0.3 °C | – | 1 °C | – | –
COc1cccc(-c2cc(=O)c3ccccc3o2)c1N | -0.1 °C | -0.5 °C | -0.5 °C | 0.5 °C | 0.9 °C | 0.2 °C | 0 °C | 0.2 °C | 0 °C | – | 0.3 °C | – | –
Cc1nc(N)sc1-c1ccnc(Nc2cccc([N+](=O)[O-])c2)n1 | 2.5 °C | 3 °C | 9.7 °C | 5.1 °C | 1.1 °C | 0.6 °C | 2.7 °C | 2.3 °C | 4 °C | – | – | – | 53 nM
CCOc1cc2ncnc(Nc3cccc(Br)c3)c2cc1OCC | 0.7 °C | 0.1 °C | 2.6 °C | 0.6 °C | 0.2 °C | 0.7 °C | 0.7 °C | 3.8 °C | 0.3 °C | – | 0.4 °C | – | –
